Experimental data from ChEMBL document CHEMBL1201862, “PubChem BioAssay data set” (2004).
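Protocol summary: plate cells (96-well), add compound at 5 concentrations, incubate 48 h, interpolate endpoints linearly. GI50: concentration for 50% inhibition of growth.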 Active and inactive are the calls of the source. Rule as the data show it: active = GI50 up to about 1.1 µM and inactive = higher.

Key:
Assay in all cases: NCI anticancer screen, dose series, 48 h
CAKI-1 = test system: CAKI-1
UO-31 = test system: UO-31
CCRF-CEM = test system: CCRF-CEM
EKVX = test system: EKVX
NCI-H460 = test system: NCI-H460
COLO 205 = test system: COLO 205
ACHN = test system: ACHN
RPMI-8226 = test system: RPMI-8226
K562 = test system: K562
NCI-H522 = test system: NCI-H522
HCT-15 = test system: HCT-15
SN12C = test system: SN12C
A549 = test system: A549
SF-539 = test system: SF-539
HOP-62 = test system: HOP-62
MCF7 = test system: MCF7
PC-3 = test system: PC-3
OVCAR-8 = test system: OVCAR-8
DU-145 = test system: DU-145
MDA-MB-435 = test system: MDA-MB-435

With `CCCn1c(SCC)c2ccccc2c1-c1nc(F)nc(F)n1` the GI50 (CAKI-1) was > 100 µM (inactive), the GI50 (UO-31) was > 100 µM (inactive) and the GI50 (CCRF-CEM) was > 100 µM (inactive). For the same compound, the GI50 (EKVX) was > 100 µM (inactive), the GI50 (NCI-H460) was > 100 µM (inactive) and the GI50 (COLO 205) was > 100 µM (inactive). For the same compound, the GI50 (ACHN) was > 100 µM (inactive), the GI50 (RPMI-8226) was > 100 µM (inactive) and the GI50 (K562) was > 100 µM (inactive). The GI50 (NCI-H522) was > 100 µM (inactive), the GI50 (HCT-15) was greater than 100 µM and the GI50 (SN12C) was > 100 µM (inactive). The GI50 (A549) was > 100 µM (inactive), the GI50 (SF-539) was > 100 µM (inactive) and the GI50 (HOP-62) was > 100 µM (inactive).
`O=C1CCCC2=C1CC1=C(CCCC1=O)N2c1ccc([N+](=O)[O-])cc1` was tested, and the GI50 (CAKI-1) was > 100 µM (inactive), the GI50 (MCF7) was > 100 µM (inactive) and the GI50 (UO-31) was > 100 µM (inactive). For the same compound, the GI50 (CCRF-CEM) was > 100 µM (inactive), the GI50 (EKVX) was > 100 µM (inactive) and the GI50 (NCI-H460) was > 100 µM (inactive). The GI50 (ACHN) was > 100 µM (inactive), the GI50 (RPMI-8226) was > 100 µM (inactive) and the GI50 (K562) was > 100 µM (inactive). The GI50 (HCT-15) was greater than 100 µM, the GI50 (SN12C) was > 100 µM (inactive) and the GI50 (PC-3) was > 100 µM (inactive). The GI50 (A549) was > 100 µM (inactive), the GI50 (SF-539) was > 100 µM (inactive) and the GI50 (OVCAR-8) was > 100 µM (inactive).
With `CC(C)c1cccc(=O)c(O)c1` the GI50 (CAKI-1) was 1.64 µM (inactive), the GI50 (UO-31) was 3.94 µM (inactive) and the GI50 (CCRF-CEM) was 0.845 µM (active). The GI50 (EKVX) was 5.78 µM (inactive), the GI50 (NCI-H460) was 2.27 µM (inactive) and the GI50 (COLO 205) was 1.37 µM (inactive). The GI50 (ACHN) was 1.87 µM (inactive), the GI50 (RPMI-8226) was 2.14 µM (inactive) and the GI50 (K562) was 2.21 µM (inactive). For the same compound, the GI50 (NCI-H522) was 1.39 µM (inactive), the GI50 (HCT-15) was 1.54 µM and the GI50 (SN12C) was 5.51 µM (inactive). For the same compound, the GI50 (A549) was 2.83 µM (inactive), the GI50 (SF-539) was 3.21 µM (inactive) and the GI50 (OVCAR-8) was 1.72 µM (inactive). For the same compound, the GI50 (HOP-62) was 5.3 µM (inactive).
For `O=S(=O)(O)c1ccccc1/N=N\c1ccc(/N=N/c2c(O)ccc3ccccc23)c(S(=O)(=O)O)c1`, the GI50 (CAKI-1) was > 100 µM (inactive), the GI50 (UO-31) was > 100 µM (inactive) and the GI50 (CCRF-CEM) was 83.6 µM (inactive). For the same compound, the GI50 (EKVX) was > 100 µM (inactive), the GI50 (COLO 205) was > 100 µM (inactive) and the GI50 (ACHN) was > 100 µM (inactive). The GI50 (RPMI-8226) was > 100 µM (inactive), the GI50 (DU-145) was > 100 µM (inactive) and the GI50 (K562) was > 100 µM (inactive). For the same compound, the GI50 (NCI-H522) was > 100 µM (inactive), the GI50 (HCT-15) was greater than 100 µM and the GI50 (SN12C) was > 100 µM (inactive). The GI50 (PC-3) was > 100 µM (inactive), the GI50 (A549) was > 100 µM (inactive) and the GI50 (MDA-MB-435) was > 100 µM (inactive). The GI50 (OVCAR-8) was > 100 µM (inactive) and the GI50 (HOP-62) was > 100 µM (inactive).
With `COc1ccc(C(=O)C(C(=O)CCC(=O)Nc2cccc(Cl)c2)c2ccc(OC)cc2)cc1` (stereo not drawn) the GI50 (CAKI-1) was > 100 µM (inactive), the GI50 (UO-31) was > 100 µM (inactive) and the GI50 (CCRF-CEM) was > 100 µM (inactive). The GI50 (EKVX) was > 100 µM (inactive), the GI50 (NCI-H460) was > 100 µM (inactive) and the GI50 (COLO 205) was > 100 µM (inactive). The GI50 (ACHN) was > 100 µM (inactive), the GI50 (RPMI-8226) was > 100 µM (inactive) and the GI50 (K562) was > 100 µM (inactive). The GI50 (NCI-H522) was > 100 µM (inactive), the GI50 (HCT-15) was greater than 100 µM and the GI50 (SN12C) was > 100 µM (inactive). For the same compound, the GI50 (A549) was > 100 µM (inactive), the GI50 (SF-539) was > 100 µM (inactive) and the GI50 (OVCAR-8) was > 100 µM (inactive). For the same compound, the GI50 (HOP-62) was > 100 µM (inactive).
In the case of `NNC(=O)/C(=C/c1cccc([N+](=O)[O-])c1)NC(=O)c1ccccc1`, the GI50 (CAKI-1) is reported as > 100 µM (inactive), the GI50 (UO-31) is reported as > 100 µM (inactive) and the GI50 (CCRF-CEM) is reported as > 100 µM (inactive). For the same compound, the GI50 (EKVX) was < 0.01 µM (active), the GI50 (NCI-H460) was > 100 µM (inactive) and the GI50 (COLO 205) was > 100 µM (inactive). For the same compound, the GI50 (ACHN) was > 100 µM (inactive), the GI50 (RPMI-8226) was > 100 µM (inactive) and the GI50 (K562) was > 100 µM (inactive). For the same compound, the GI50 (NCI-H522) was > 100 µM (inactive), the GI50 (HCT-15) was greater than 100 µM and the GI50 (SN12C) was > 100 µM (inactive). The GI50 (A549) was > 100 µM (inactive), the GI50 (SF-539) was > 100 µM (inactive) and the GI50 (OVCAR-8) was > 100 µM (inactive). For the same compound, the GI50 (HOP-62) was > 100 µM (inactive).
`COC1C=CC(C(=O)[N+]2=Cc3[nH]c4ccccc4c3CC2)O1` (stereo not drawn) was tested, and the GI50 (CAKI-1) was > 100 µM (inactive), the GI50 (UO-31) was > 100 µM (inactive) and the GI50 (CCRF-CEM) was 27.6 µM (inactive). The GI50 (EKVX) was 88.5 µM (inactive), the GI50 (NCI-H460) was 69.3 µM (inactive) and the GI50 (COLO 205) was > 100 µM (inactive). For the same compound, the GI50 (ACHN) was 97.9 µM (inactive), the GI50 (RPMI-8226) was 71.1 µM (inactive) and the GI50 (K562) was 37.2 µM (inactive). The GI50 (NCI-H522) was 34.9 µM (inactive), the GI50 (HCT-15) was 78.5 µM and the GI50 (SN12C) was > 100 µM (inactive). The GI50 (A549) was > 100 µM (inactive), the GI50 (SF-539) was > 100 µM (inactive) and the GI50 (OVCAR-8) was > 100 µM (inactive). For the same compound, the GI50 (HOP-62) was > 100 µM (inactive).
`N/C(=N\O)N/N=C/c1cccc(F)c1` was tested, and the GI50 (CAKI-1) was 27.7 µM (inactive), the GI50 (UO-31) was 28.3 µM (inactive) and the GI50 (CCRF-CEM) was 23.8 µM (inactive). The GI50 (EKVX) was 37.1 µM (inactive), the GI50 (NCI-H460) was 26.4 µM (inactive) and the GI50 (COLO 205) was 36.3 µM (inactive). The GI50 (ACHN) was 27.7 µM (inactive), the GI50 (RPMI-8226) was 39 µM (inactive) and the GI50 (K562) was 19.4 µM (inactive). The GI50 (NCI-H522) was 29.5 µM (inactive), the GI50 (HCT-15) was 50.9 µM and the GI50 (SN12C) was 44.2 µM (inactive). For the same compound, the GI50 (A549) was 31.7 µM (inactive), the GI50 (SF-539) was 28.9 µM (inactive) and the GI50 (OVCAR-8) was 33 µM (inactive). For the same compound, the GI50 (HOP-62) was 26.9 µM (inactive).
With `COC1OC(CBr)C(OC(=O)c2ccccc2)C(OS(=O)(=O)c2ccc(C)cc2)C1Br` (stereo not drawn) the GI50 (CAKI-1) was > 100 µM (inactive), the GI50 (UO-31) was > 100 µM (inactive) and the GI50 (CCRF-CEM) was > 100 µM (inactive). For the same compound, the GI50 (EKVX) was > 100 µM (inactive), the GI50 (NCI-H460) was > 100 µM (inactive) and the GI50 (COLO 205) was > 100 µM (inactive). The GI50 (ACHN) was > 100 µM (inactive), the GI50 (RPMI-8226) was > 100 µM (inactive) and the GI50 (K562) was > 100 µM (inactive). The GI50 (NCI-H522) was > 100 µM (inactive), the GI50 (HCT-15) was greater than 100 µM and the GI50 (SN12C) was > 100 µM (inactive). For the same compound, the GI50 (A549) was > 100 µM (inactive), the GI50 (SF-539) was > 100 µM (inactive) and the GI50 (OVCAR-8) was > 100 µM (inactive). The GI50 (HOP-62) was > 100 µM (inactive).
